Source: article PMC5218480 (PLoS ONE, 2017)

System: MV-4-11 cells
Assay: Gene expression microarray analysis (Affymetrix PrimeView) and GSEA
Type: cell-based, human
Design: RFU PODN (11730768_x_at) / Fold change /veh PODN (11730768_x_at) / RFU LINC00158 (11744669_a_at) / Fold change /veh LINC00158 (11744669_a_at) / RFU DUSP10 (11751237_a_at) / Fold change /veh DUSP10 (11751237_a_at) / RFU ID3 (11757404_x_at) / Fold change /veh ID3 (11757404_x_at) / RFU PLEKHG5 (11737974_s_at) / Fold change /veh PLEKHG5 (11737974_s_at) / RFU LRRC4B (11730491_at) / Fold change /veh LRRC4B (11730491_at) / RFU GIMAP4 (11747438_a_at) / Fold change /veh GIMAP4 (11747438_a_at) / RFU KRT8 (11758183_x_at) / Fold change /veh KRT8 (11758183_x_at) / RFU CNN1 (11734310_a_at) / Fold change /veh CNN1 (11734310_a_at) / RFU VPS37D (11726825_at) / Fold change /veh VPS37D (11726825_at) / RFU C10orf10 (11716522_x_at) / Fold change /veh C10orf10 (11716522_x_at) / RFU KIR2DL2 /// KIR2DL4 /// KIR2DL5A /// KIR2DL5B /// KIR2DS1 /// KIR2DS2 /// KIR2DS3 /// KIR2DS4 /// KIR3DL3 /// KIR3DL3 /// KIR3DS1 (11738374_at) / Fold change /veh KIR2DL2 /// KIR2DL4 /// KIR2DL5A /// KIR2DL5B /// KIR2DS1 /// KIR2DS2 /// KIR2DS3 /// KIR2DS4 /// KIR3DL3 /// KIR3DL3 /// KIR3DS1 (11738374_at) / RFU C1QL1 (11718748_at) / Fold change /veh C1QL1 (11718748_at) / RFU TMPRSS4 (11747572_a_at) / Fold change /veh TMPRSS4 (11747572_a_at) / RFU HAMP (11756126_x_at) / Fold change /veh HAMP (11756126_x_at) / RFU RNFT2 (11725882_a_at) / Fold change /veh RNFT2 (11725882_a_at) / RFU NR4A2 (11747474_a_at) / Fold change /veh NR4A2 (11747474_a_at) / RFU ABCC12 (11746883_a_at) / Fold change /veh ABCC12 (11746883_a_at) / RFU TMEM136 (11760407_x_at) / Fold change /veh TMEM136 (11760407_x_at) / RFU CLDN22 /// WWC2 (11732394_at) / Fold change /veh CLDN22 /// WWC2 (11732394_at) / RFU HLA-DPB1 (11760878_x_at) / Fold change /veh HLA-DPB1 (11760878_x_at) / RFU SPINT1 (11716480_a_at) / Fold change /veh SPINT1 (11716480_a_at) / RFU GAP43 (11754022_s_at) / Fold change /veh GAP43 (11754022_s_at) / RFU A4GNT (11735810_at) / Fold change /veh A4GNT (11735810_at) / RFU PRB3 (11715151_x_at) / Fold change /veh PRB3 (11715151_x_at) / RFU TUBB4B (11761932_at) / Fold change /veh TUBB4B (11761932_at) / RFU CAPN14 (11732068_a_at) / Fold change /veh CAPN14 (11732068_a_at) / RFU TMCC2 (11721928_a_at) / Fold change /veh TMCC2 (11721928_a_at) / RFU IRGQ (11745062_a_at) / Fold change /veh IRGQ (11745062_a_at) / RFU FAM174B (11720279_a_at) / Fold change /veh FAM174B (11720279_a_at) / RFU TMPRSS4 (11748680_a_at) / Fold change /veh TMPRSS4 (11748680_a_at) / RFU FAM212B (11763350_a_at) / Fold change /veh FAM212B (11763350_a_at) / RFU PLEKHG5 (11743358_a_at) / Fold change /veh PLEKHG5 (11743358_a_at) / RFU ZSCAN30 (11745921_a_at) / Fold change /veh ZSCAN30 (11745921_a_at) / RFU CMKLR1 (11741424_a_at) / Fold change /veh CMKLR1 (11741424_a_at) / RFU LOC101060620 /// MAPK8IP1 (11723275_at) / Fold change /veh LOC101060620 /// MAPK8IP1 (11723275_at) / RFU SPTSSB (11747773_x_at) / Fold change /veh SPTSSB (11747773_x_at) / RFU PRSS12 (11739890_at) / Fold change /veh PRSS12 (11739890_at) / RFU BIN1 (11741810_x_at) / Fold change /veh BIN1 (11741810_x_at) / RFU WNT11 (11732464_a_at) / Fold change /veh WNT11 (11732464_a_at) / RFU C10orf10 (11716521_a_at) / Fold change /veh C10orf10 (11716521_a_at) / RFU C5orf56 (11738089_at) / Fold change /veh C5orf56 (11738089_at) / RFU CYB561 (11721691_x_at) / Fold change /veh CYB561 (11721691_x_at) / RFU ANKRD19P (11752326_a_at) / Fold change /veh ANKRD19P (11752326_a_at) / RFU OR2T12 /// OR2T33 /// OR2T8 (11738714_s_at) / Fold change /veh OR2T12 /// OR2T33 /// OR2T8 (11738714_s_at) / RFU VCAN (11748164_a_at) / Fold change /veh VCAN (11748164_a_at) / RFU JSRP1 (11732532_at) / Fold change /veh JSRP1 (11732532_at) / RFU KRTAP10-11 (11738290_x_at) / Fold change /veh KRTAP10-11 (11738290_x_at) / RFU MYO3A (11730013_a_at) / Fold change /veh MYO3A (11730013_a_at) / RFU EBF3 (11725865_a_at) / Fold change /veh EBF3 (11725865_a_at) / RFU CAMK2N1 (11719241_x_at) / Fold change /veh CAMK2N1 (11719241_x_at) / RFU C5orf56 (11738088_a_at) / Fold change /veh C5orf56 (11738088_a_at) / RFU OLFML3 (11715873_a_at) / Fold change /veh OLFML3 (11715873_a_at) / RFU LOC100653217 /// NTM (11731650_a_at) / Fold change /veh LOC100653217 /// NTM (11731650_a_at) / RFU MAPK11 (11762145_a_at) / Fold change /veh MAPK11 (11762145_a_at) / RFU FIZ1 (11724087_x_at) / Fold change /veh FIZ1 (11724087_x_at) / RFU OASL (11726364_x_at) / Fold change /veh OASL (11726364_x_at) / RFU SOX15 (11748057_x_at) / Fold change /veh SOX15 (11748057_x_at) / RFU CD79A (11719716_a_at) / Fold change /veh CD79A (11719716_a_at) / RFU HIST1H1D (11736915_at) / Fold change /veh HIST1H1D (11736915_at) / RFU CASKIN2 (11723855_a_at) / Fold change /veh CASKIN2 (11723855_a_at) / RFU LOC730098 (11760151_x_at) / Fold change /veh LOC730098 (11760151_x_at) / RFU OR4N2 (11742367_at) / Fold change /veh OR4N2 (11742367_at) / RFU PRRT2 (11749266_a_at) / Fold change /veh PRRT2 (11749266_a_at) / RFU SNX32 (11753110_a_at) / Fold change /veh SNX32 (11753110_a_at) / RFU CDHR5 (11726645_a_at) / Fold change /veh CDHR5 (11726645_a_at) / RFU RCAN1 (11760418_a_at) / Fold change /veh RCAN1 (11760418_a_at) / RFU FAM167A (11723789_a_at) / Fold change /veh FAM167A (11723789_a_at) / RFU FAM26E (11764081_at) / Fold change /veh FAM26E (11764081_at) / RFU ISYNA1 (11749810_s_at) / Fold change /veh ISYNA1 (11749810_s_at) / RFU ACY1 (11761880_at) / Fold change /veh ACY1 (11761880_at) / RFU 11764098_at / Fold change /veh 11764098_at / RFU SAMD14 (11745864_x_at) / Fold change /veh SAMD14 (11745864_x_at) / RFU NPB (11741838_a_at) / Fold change /veh NPB (11741838_a_at) / RFU TMPRSS6 (11731388_a_at) / Fold change /veh TMPRSS6 (11731388_a_at) / RFU KRTAP10-2 (11738614_at) / Fold change /veh KRTAP10-2 (11738614_at) / RFU ARHGAP8 /// PRR5-ARHGAP8 (11727945_x_at) / Fold change /veh ARHGAP8 /// PRR5-ARHGAP8 (11727945_x_at) / RFU KRTAP5-7 /// NADSYN1 (11734609_at) / Fold change /veh KRTAP5-7 /// NADSYN1 (11734609_at) / RFU RASL12 (11751679_a_at) / Fold change /veh RASL12 (11751679_a_at) / RFU CDKN2B (11736163_a_at) / Fold change /veh CDKN2B (11736163_a_at) / RFU PRF1 (11729649_at) / Fold change /veh PRF1 (11729649_at) / RFU, ZNF638 /// ZNF638-IT1 / Fold change vs veh, ZNF638 /// ZNF638-IT1 / RFU, PANK3 / Fold change vs veh, PANK3 / RFU, SH3YL1 / Fold change vs veh, SH3YL1 / RFU, ZEB2 / Fold change vs veh, ZEB2 / RFU, NRIP1 / Fold change vs veh, NRIP1 / RFU, PTTG1IP / Fold change vs veh, PTTG1IP / RFU, CAPN2 / Fold change vs veh, CAPN2 / RFU, MED14 / Fold change vs veh, MED14 / RFU, SNORA58 / Fold change vs veh, SNORA58 / RFU, C1orf63 / Fold change vs veh, C1orf63 / RFU, LRRFIP1 / Fold change vs veh, LRRFIP1 / RFU, NDUFAF7 / Fold change vs veh, NDUFAF7 / RFU, SLC12A2 / Fold change vs veh, SLC12A2 / RFU, IBTK / Fold change vs veh, IBTK / RFU, ESF1 / Fold change vs veh, ESF1 / Fold change vs veh, TMEM50B / RFU, TAOK1 / Fold change vs veh, TAOK1 / RFU, ACBD3 / Fold change vs veh, ACBD3 / RFU, TMA16 / Fold change vs veh, TMA16 / RFU, RWDD3 / Fold change vs veh, RWDD3 / RFU, BCAT1 / Fold change vs veh, BCAT1 / RFU, EDEM3 / Fold change vs veh, EDEM3 / RFU, TMEM33 / Fold change vs veh, TMEM33 / RFU, WDR75 / Fold change vs veh, WDR75 / RFU, AHCTF1 / Fold change vs veh, AHCTF1 / RFU, TFRC / Fold change vs veh, TFRC / RFU, ZDHHC17 / Fold change vs veh, ZDHHC17 / RFU, NOM1 / Fold change vs veh, NOM1 / RFU, ARL8B / Fold change vs veh, ARL8B / RFU, ZBTB11 / Fold change vs veh, ZBTB11 / RFU, TAMM41 / Fold change vs veh, TAMM41 / RFU, KIAA1704 /// LOC100996395 / Fold change vs veh, KIAA1704 /// LOC100996395 / RFU, ING1 / Fold change vs veh, ING1 / RFU, TRMT61B / Fold change vs veh, TRMT61B / RFU, FUBP3 / Fold change vs veh, FUBP3 / RFU, TP53 / Fold change vs veh, TP53 / RFU, TNKS2 / Fold change vs veh, TNKS2 / RFU, ZFP14 / Fold change vs veh, ZFP14 / RFU, ACTR2 / Fold change vs veh, ACTR2 / RFU, PPP3R1 / Fold change vs veh, PPP3R1 / RFU, PIK3R1 / Fold change vs veh, PIK3R1 / RFU, HNRNPA1 / Fold change vs veh, HNRNPA1 / RFU, RNF170 / Fold change vs veh, RNF170 / RFU, ZNF28 / Fold change vs veh, ZNF28 / RFU, RNGTT / Fold change vs veh, RNGTT / RFU, OGT / Fold change vs veh, OGT / RFU, BRD1 / Fold change vs veh, BRD1 / RFU, MARS / Fold change vs veh, MARS / RFU, ZNF655 / Fold change vs veh, ZNF655 / RFU, FAHD1 / Fold change vs veh, FAHD1 / RFU, BDP1 / Fold change vs veh, BDP1 / RFU, LRRCC1 / Fold change vs veh, LRRCC1 / RFU, ARID1A / Fold change vs veh, ARID1A / RFU, ZNF146 / Fold change vs veh, ZNF146 / RFU, ZNF330 / Fold change vs veh, ZNF330 / RFU, GPN3 / Fold change vs veh, GPN3 / RFU, C9orf123 / Fold change vs veh, C9orf123 / RFU, N4BP2L2 / Fold change vs veh, N4BP2L2 / RFU, ARFIP1 / Fold change vs veh, ARFIP1 / RFU, FAM179B / Fold change vs veh, FAM179B / RFU, BCL10 / Fold change vs veh, BCL10 / RFU, UHRF1BP1L / Fold change vs veh, UHRF1BP1L / RFU, BET1 / Fold change vs veh, BET1 / RFU, CNOT2 / Fold change vs veh, CNOT2 / RFU, ZNF268 / Fold change vs veh, ZNF268 / Fold change vs veh, ZNF507 / RFU, DGCR2 / Fold change vs veh, DGCR2 / RFU, WDSUB1 / Fold change vs veh, WDSUB1 / Fold change vs veh, HSP90B1 /// MIR3652 / RFU, ADSS / Fold change vs veh, ADSS / RFU, GK / Fold change vs veh, GK / RFU, ZNF148 / Fold change vs veh, ZNF148 / RFU, TAF9 / Fold change vs veh, TAF9 / RFU, SLC1A5 / Fold change vs veh, SLC1A5 / RFU, SLMO2 / Fold change vs veh, SLMO2 / RFU, ABCC4 / Fold change vs veh, ABCC4 / RFU, LOC101060439 /// RAP1B / Fold change vs veh, LOC101060439 /// RAP1B / RFU, RFX7 / Fold change vs veh, RFX7 / RFU, GTPBP10 / Fold change vs veh, GTPBP10 / RFU, CNEP1R1 / Fold change vs veh, CNEP1R1 / RFU, BIVM-ERCC5 /// ERCC5 / Fold change vs veh, BIVM-ERCC5 /// ERCC5 / RFU, ILF3 / Fold change vs veh, ILF3 / RFU 11762660_at / Fold change /veh 11762660_at / RFU VCAN (11757783_s_at) / Fold change /veh VCAN (11757783_s_at) / RFU DDX43 (11728927_at) / Fold change /veh DDX43 (11728927_at) / RFU KRT8 (11758188_x_at) / Fold change /veh KRT8 (11758188_x_at) / RFU NKD1 (11759106_at) / Fold change /veh NKD1 (11759106_at) / RFU SRD5A1 (11742802_a_at) / Fold change /veh SRD5A1 (11742802_a_at) / RFU TPSAB1 /// TPSB2 (11721975_s_at) / Fold change /veh TPSAB1 /// TPSB2 (11721975_s_at) / RFU GSTM3 (11746129_a_at) / Fold change /veh GSTM3 (11746129_a_at) / RFU IL23R (11737362_x_at) / Fold change /veh IL23R (11737362_x_at) / RFU TMEM51 (11727254_a_at) / Fold change /veh TMEM51 (11727254_a_at) / RFU PIWIL2 (11732686_x_at) / Fold change /veh PIWIL2 (11732686_x_at) / RFU ORM1 (11744905_x_at) / Fold change /veh ORM1 (11744905_x_at) / RFU CCDC152 (11743942_at) / Fold change /veh CCDC152 (11743942_at) / RFU ECM1 (11717891_a_at) / Fold change /veh ECM1 (11717891_a_at) / RFU IL23R (11748794_a_at) / Fold change /veh IL23R (11748794_a_at) / RFU TNFAIP8L3 (11732012_x_at) / Fold change /veh TNFAIP8L3 (11732012_x_at) / RFU MBOAT4 (11741988_at) / Fold change /veh MBOAT4 (11741988_at) / RFU 11764193_at / Fold change /veh 11764193_at / RFU TMEM53 (11763286_at) / Fold change /veh TMEM53 (11763286_at) / RFU MAGEB2 (11727129_at) / Fold change /veh MAGEB2 (11727129_at) / RFU TMEM200A (11744735_a_at) / Fold change /veh TMEM200A (11744735_a_at) / RFU CCDC152 (11751479_a_at) / Fold change /veh CCDC152 (11751479_a_at) / RFU FAM211A (11726209_a_at) / Fold change /veh FAM211A (11726209_a_at) / RFU RGS16 (11746705_a_at) / Fold change /veh RGS16 (11746705_a_at) / RFU VCAN (11755009_s_at) / Fold change /veh VCAN (11755009_s_at) / RFU RHOB (11743442_s_at) / Fold change /veh RHOB (11743442_s_at) / RFU RGS16 (11720943_a_at) / Fold change /veh RGS16 (11720943_a_at) / RFU RGS16 (11720944_at) / Fold change /veh RGS16 (11720944_at) / RFU, VPS4B / Fold change vs veh, VPS4B / RFU, CREB1 / Fold change vs veh, CREB1 / RFU, DNAJC13 / Fold change vs veh, DNAJC13 / RFU, GNAQ / Fold change vs veh, GNAQ / RFU, CDK5R1 / Fold change vs veh, CDK5R1 / RFU, ZRANB3 / Fold change vs veh, ZRANB3 / RFU, CUL4A / Fold change vs veh, CUL4A / RFU, CCNY / Fold change vs veh, CCNY / RFU, UFL1 / Fold change vs veh, UFL1 / RFU, COG3 / Fold change vs veh, COG3 / RFU, DIAPH2 / Fold change vs veh, DIAPH2 / RFU, SKA2 / Fold change vs veh, SKA2 / RFU, AFF3 / Fold change vs veh, AFF3 / RFU, LMF1 / Fold change vs veh, LMF1 / RFU, IPO11 / Fold change vs veh, IPO11 / RFU, DFFB / Fold change vs veh, DFFB / RFU, FOXP1 / Fold change vs veh, FOXP1 / RFU, CARD8 / Fold change vs veh, CARD8 / RFU, STRN3 / Fold change vs veh, STRN3 / RFU, ADK / Fold change vs veh, ADK / RFU, RASSF2 / Fold change vs veh, RASSF2 / RFU, WIPF1 / Fold change vs veh, WIPF1 / RFU, LARP1B / Fold change vs veh, LARP1B / RFU, RASA1 / Fold change vs veh, RASA1 / RFU, RB1 / Fold change vs veh, RB1 / RFU, PPFIA1 / Fold change vs veh, PPFIA1 / RFU, MAT2A / Fold change vs veh, MAT2A / RFU, CCT5 / Fold change vs veh, CCT5 / RFU, WDR92 / Fold change vs veh, WDR92 / RFU, CUX1 / Fold change vs veh, CUX1 / RFU, TTC7A / Fold change vs veh, TTC7A / RFU, TMEM135 / Fold change vs veh, TMEM135 / RFU, DEPTOR / Fold change vs veh, DEPTOR / RFU, CPM / Fold change vs veh, CPM / RFU, DNAJB6 / Fold change vs veh, DNAJB6 / RFU, CACNA2D3 / Fold change vs veh, CACNA2D3 / RFU, DTX4 / Fold change vs veh, DTX4 / RFU, TFCP2 / Fold change vs veh, TFCP2 / RFU, GMCL1 /// GMCL1P1 / Fold change vs veh, GMCL1 /// GMCL1P1 / RFU, AEBP2 / Fold change vs veh, AEBP2 / RFU, SNHG1 /// SNORD22 /// SNORD25 /// SNORD26 /// SNORD27 /// SNORD28 /// SNORD29 /// SNORD31 / Fold change vs veh, SNHG1 /// SNORD22 /// SNORD25 /// SNORD26 /// SNORD27 /// SNORD28 /// SNORD29 /// SNORD31 / Fold change (Aza/veh), C12orf56 (ProbeSet 11735607_a_at) / Fold change (ACY-1035/veh), C12orf56 (ProbeSet 11735607_a_at) / Fold change (Aza/veh), FGFR1OP (ProbeSet 11751329_s_at) / Fold change (ACY-1035/veh), FGFR1OP (ProbeSet 11751329_s_at) / Fold change (Aza/veh), VPS36 (ProbeSet 11739960_a_at) / Fold change (ACY-1035/veh), VPS36 (ProbeSet 11739960_a_at) / RFU SYPL1 (11715823_x_at) / Fold change /veh SYPL1 (11715823_x_at) / RFU IGFBP7 (11715501_s_at) / Fold change /veh IGFBP7 (11715501_s_at) / RFU REEP3 (11722064_at) / Fold change /veh REEP3 (11722064_at) / RFU IGLL1 (11728026_x_at) / Fold change /veh IGLL1 (11728026_x_at): dose or concentration left out as unconfirmed
Details: MV-4-11 cells, 48 hours

Nc1ccc(-c2cccs2)cc1NC(=O)c1ccc2c(c1)cc(C1CC1)n2CCN1CCOCC1 [ACY-1035]
Fold change /veh TMCC2 (11721928_a_at): 1.04
